Among the test systems are A549 NSCLC; NCI-H226 lung; SNB-75 CNS; A498 renal; HL-60(TB) leukemia; PC-3 prostate; OVCAR-5 ovarian; HCT-116 colon; KM12 colon; HS 578T breast.
What all share (assay): NCI-60 cell line screen, 48 h

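In this assay, cells in 96-well plates receive the compound at five concentrations for 48 hours. Endpoints are linearly interpolated between the surrounding concentrations. Abbreviation: GI50, concentration required for 50% inhibition of growth. TGI marks complete inhibition of growth.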 Some results are limits rather than exact numbers.

Turning to `CC(=O)NC1(c2cc3ccccc3s2)CCCCCC1`, the TGI in the assay with A549 NSCLC is more than 100 µM; in the assay on NCI-H226 lung it was more than 100 µM; in the assay on SNB-75 CNS, 92.2 µM; in the assay with A498 renal, more than 100 µM; in the assay on HL-60(TB) leukemia, 55.4 µM; in the assay with PC-3 prostate, 60.8 µM. In addition, the TGI with OVCAR-5 ovarian, with HCT-116 colon and in the assay with KM12 colon was more than 100 µM in each case.

In the case of `CCOC(=O)c1cc2/c(=C\c3ccc(N(C)C)cc3)c3ccccc3n2[n+]1C`, the TGI with A549 NSCLC is more than 40 µM; with NCI-H226 lung, 24.6 µM; with A498 renal it was 27.7 µM; with HL-60(TB) leukemia, 2.37 µM; in the assay on PC-3 prostate, 12.7 µM; in the assay with OVCAR-5 ovarian, 20.4 µM. Further, the results for the TGI with HCT-116 colon and in the assay on KM12 colon were 11.1 µM and 1.4 µM, respectively.

Regarding `N#Cc1c(N2CCC(O)C2)c2ccccc2n2c1nc1ccccc12` (centres undefined), the TGI in the assay on A549 NSCLC is more than 100 µM; in the assay on SNB-75 CNS, 62.9 µM; with A498 renal it was 95.5 µM; in the assay on HL-60(TB) leukemia, more than 100 µM; in the assay on PC-3 prostate it was more than 100 µM; in the assay with HS 578T breast, more than 100 µM. Also, the TGI in the assay on OVCAR-5 ovarian, in the assay on HCT-116 colon and in the assay on KM12 colon was more than 100 µM throughout.

Turning to `Nc1nc2ncc(CNc3ccc(C(=O)NC(CCC(=O)O)C(=O)O)cc3)nc2c(=O)[nH]1` (centres undefined), the TGI with A549 NSCLC, in the assay on NCI-H226 lung, in the assay with SNB-75 CNS, in the assay with PC-3 prostate, with HS 578T breast and in the assay with OVCAR-5 ovarian was more than 100 µM throughout. Further, the TGI in the assay on KM12 colon is more than 100 µM.

Take `COC(=O)c1cc(C(=CCC[C@H]2CC[C@@]3(C)C(CCC4C3CC[C@@]3(C)C4CC[C@@H]3C(C)CCCC(C)C)C2)c2cc(Cl)c(O)c(C(=O)OC)c2)cc(Cl)c1O` (some centres undefined): the TGI with A549 NSCLC, in the assay with NCI-H226 lung, in the assay with SNB-75 CNS, in the assay with HL-60(TB) leukemia, in the assay on PC-3 prostate and in the assay on HS 578T breast was more than 10 µM in each case. In addition, the TGI in the assay with OVCAR-5 ovarian, in the assay on HCT-116 colon and in the assay with KM12 colon was more than 10 µM each time.

For `Cc1ccc(/C(O)=C/C(=O)C(=O)NC23CC4CC(CC(C4)C2)C3)cc1`, the TGI in the assay with A549 NSCLC, with SNB-75 CNS, in the assay with HL-60(TB) leukemia, in the assay on PC-3 prostate and with KM12 colon was more than 10 µM each time.

Consider `C=C(CCC/C(C)=C/C=C/[C@@H](C)CCCc1ccoc1)C[C@@H]1OC(=O)[C@H](C)[C@@H]1O`, for which the TGI is 17 µM with A549 NSCLC; 14.1 µM in the assay on NCI-H226 lung; 19 µM with SNB-75 CNS; 15.3 µM with A498 renal; 15.6 µM with PC-3 prostate; more than 50 µM with OVCAR-5 ovarian. The TGI in the assay on HCT-116 colon is more than 50 µM; in the assay on KM12 colon, 16.1 µM.

On to `CC(=O)OCC1OC(n2c(-c3ccccc3)c(C(C)=O)c(-c3cccc4ccccc34)c(C#N)c2=S)C(OC(C)=O)C(OC(C)=O)C1OC(C)=O` (centres undefined), for which the TGI in the assay with A549 NSCLC, in the assay with NCI-H226 lung, in the assay on SNB-75 CNS, with A498 renal, in the assay with HL-60(TB) leukemia and with PC-3 prostate was more than 100 µM in each case. The TGI in the assay on OVCAR-5 ovarian, in the assay on HCT-116 colon and with KM12 colon was more than 100 µM each time. For the same compound, the GI50 in the assay on SNB-75 CNS was 22 nM.

With `N#CC(Cc1ccccc1)N(CCC1=CCCCC1)Cc1ccccc1` (centres undefined), the TGI with A549 NSCLC, with SNB-75 CNS, with A498 renal, in the assay with PC-3 prostate, in the assay with HS 578T breast and with OVCAR-5 ovarian was more than 100 µM in each case. For the same compound, the TGI in the assay on HCT-116 colon and in the assay on KM12 colon was more than 100 µM each time.

Regarding `COC1CN(C)C(=Nc2cccc3ccccc23)S1` (centres undefined), the TGI in the assay on A549 NSCLC, with SNB-75 CNS, in the assay with HL-60(TB) leukemia, in the assay on PC-3 prostate, in the assay with HS 578T breast and in the assay with OVCAR-5 ovarian was more than 10 µM each time. Also, the TGI in the assay with HCT-116 colon and in the assay on KM12 colon was more than 10 µM each time.

For `O=C(Nc1ccc2[nH]c(C(=O)N3CC(CCl)c4c3cc([N+](=O)[O-])c3ccccc43)cc2c1)Nc1ccc2[nH]c(C(=O)N3CC(CCl)c4c3cc([N+](=O)[O-])c3ccccc43)cc2c1` (centres undefined), the TGI in the assay on A549 NSCLC, in the assay on NCI-H226 lung, in the assay with SNB-75 CNS, in the assay on A498 renal, with PC-3 prostate and in the assay with OVCAR-5 ovarian was more than 100 µM in each case. The TGI with HCT-116 colon and in the assay with KM12 colon was more than 100 µM throughout.

With `O=c1ccn(COC(COCc2ccccc2)COCc2ccccc2)c(=O)[nH]1`, the TGI in the assay on NCI-H226 lung, with SNB-75 CNS, in the assay on A498 renal, with HL-60(TB) leukemia, in the assay with PC-3 prostate and in the assay with HS 578T breast was more than 100 µM in each case. In addition, the TGI with OVCAR-5 ovarian, in the assay with HCT-116 colon and with KM12 colon was more than 100 µM in each case.

On to `COC1CC(COCc2ccccc2)CC(OC)O1` (centres undefined), for which the TGI with A549 NSCLC is more than 100 µM; with NCI-H226 lung it was more than 100 µM; with SNB-75 CNS, more than 100 µM; in the assay with A498 renal, more than 100 µM; with HL-60(TB) leukemia, 1.84 µM; in the assay with HS 578T breast, more than 100 µM. Besides, the TGI with OVCAR-5 ovarian, in the assay on HCT-116 colon and with KM12 colon was more than 100 µM in each case.

As to `O=C(CN1CCOCC1)c1ccc2c(c1)oc(=O)n2CCN1CCOCC1`, the TGI in the assay on NCI-H226 lung, in the assay on SNB-75 CNS, in the assay with A498 renal, in the assay on HL-60(TB) leukemia, in the assay on PC-3 prostate and with HS 578T breast was more than 100 µM each time. Also, the TGI with OVCAR-5 ovarian, in the assay on HCT-116 colon and in the assay on KM12 colon was more than 100 µM in each case.

With `Cc1ccc(O)c(C2=CC(c3cccc(Cl)c3)SC(N)=N2)c1` (centres undefined), the TGI in the assay with A549 NSCLC worked out at 62.9 µM; in the assay on NCI-H226 lung, 38.9 µM; in the assay with HL-60(TB) leukemia, 61.6 µM; in the assay on PC-3 prostate, 73.6 µM; in the assay with HS 578T breast, 47.9 µM; in the assay with OVCAR-5 ovarian, 73.5 µM. The values for the TGI in the assay on HCT-116 colon and in the assay on KM12 colon were 39.7 µM and 89.6 µM, respectively.

Values taken from PubChem BioAssay (NCI).
